Results reported in patent publication US20220016092A1, “METHODS FOR TREATING SYMPTOMS AND DISORDERS ASSOCIATED WITH LYSOSOMAL STORAGE DISEASES” (GENZYME CORPORATION, priority 2019, published 2022).
Where “and” joins values, the source holds several entries; their conditions need not be identical. Equal values may be shown once. Read-outs that look alike come from different tables or passages of the source.

What was measured:
Assay type in all cases: in vivo, human
[1] = Clinical study in GD-3 patients: Compound 2 concentrations in plasma and CSF; settings: 15 mg/day + imiglucerase; for AUC(0-t): read-out: AUC0-24 (mean ± SD); for Cmax: read-out: Cmax (mean ± SD)
From the text: Patients 18 years of age or older with a clinical diagnosis of GD3 and documented deficiency of acid beta-glucosidase activity having received treatment with ERT for at least 3 years and with imiglucerase (Cerezyme) at a stable monthly dose for at least 6 months prior to enrollment were included in the study. Patients must have reached the following GD therapeutic goals: hemoglobin level of ≥11.0 g/dL for females and ≥12.0 g/dL for males; platelet count ≥100 000/mm3; spleen volume <10 multiples of normal (MN), or total splenectomy (provided the splenectomy occurred >3 years prior to randomization); liver volume <1.5 MN; and no bone crisis and free of symptomatic bone disease such as bone pain attributable to osteonecrosis and/or pathological fractures within the last year. Patients must have GD3 featuring oculomotor apraxia (supranuclear gaze palsy) characterized by a horizontal saccade abnormality.
During the study patients were evaluated for safety and tolerability, CSF and plasma biomarkers (glucosylceramide, GL-1; glucosylsphingosine, lyso-GL1), pharmacokinetics, markers for systemic disease (spleen and liver volume measured by magnetic resonance imaging (MRI), platelet count, hemoglobin levels), indicia of interstitial lung disease (high resolution pulmonary computed tomography (CT)), and horizontal saccadic eye movement.
A second interim analysis was performed when the first 6 patients had reached 52-weeks of treatment, as described above in section (A). This analysis included Patients 1-5 as described in section (A), as well as new Patient 6. All six patients had L444P (1448T/C) homozygous Gaucher phenotype.

[2] = test system: chitotriosidase (CHITO), GM3, GPNMB, ceramide; test: Clinical study in GD-3 patients: exploratory biomarkers
Experimental: Four exploratory biomarkers were quantified in plasma, serum and/or CSF of GD3 patients at week 4 and week 26: chitotriosidase (CHITO; an enzyme known to be elevated in GD patients) was measured in CSF and serum; GM3 (a glycosphingolipid marker known to be elevated in GD patients) was measured in CSF and plasma; and glycoprotein nonmetastatic melanoma protein B (GPNMB; reportedly a biomarker of neuropathic GD3) was measured in CSF. The results are shown in the table below as percent change from baseline at week 4 and week 26 for each parameter:
In addition, exploratory biomarkers were quantified in CSF of GD3 patients: ceramide (the precursor of GL-1), chitotriosidase (CHITO), GM3, and GPNMB.

[3] = test system: adult male Fabry patients; test: Clinical study in Fabry disease patients: SF-36 bodily pain and abdominal pain; settings: 15 mg/day oral
Experimental: A three-year open-label investigation of Compound 2 in young classic Fabry disease patients was conducted in order to evaluate the long-term safety, pharmacodynamics and exploratory efficacy of Compound 2 in adult male Fabry patients. Eleven subjects enrolled in the study, and seven subjects completed all aspects of the study. All subjects were males diagnosed with classic Fabry disease confirmed by genotype and residual alpha-galactosidase activity below detection levels (9 of the 11 had nonsense mutation in the GLA gene). All subjects had lyso-GL3 levels in plasma of at least 65 ng/mL and had no prior Fabry disease-specific treatment. The median age of subject was 24 years (range 19-37).
Each sample was scored independently by 3 pathologists for the presence of GL-3 inclusions on a four-point scale, and rated as 0 (no/trace), 1 (mild), 2 (moderate), or 3 (severe) according to Eng et al., N. Engl. J. Med. 345:9-16 (2001). A single score per patient per time point was derived by taking the score rated by the majority of the three pathologists. If a majority score could not be derived, then the median score was used (resulting in some fractional scores). Plasma samples were also analyzed for GL-3, lyso-GL-3, GL-1 and GM3 at baseline and weeks 12, 26, 52 and 156. […]
Patients were assessed using the Short Form-36 (SF-36) questionnaire on numerous visits from baseline to week 156. This is a 36-item questionnaire used to measure 8 various aspects of health (vitality, physical functioning, bodily pain, general health perceptions, physical role functioning, emotional role functioning, social role functioning and mental health). The score for each of the eight aspects ranges from 0 (maximum disability) to 100 (no disability), and thus, higher scores indicate good health condition. In addition, gastrointestinal symptoms, including abdominal pain, abdominal distention, and bowl movements, were assessed using a modified version of the inflammatory bowel severity scoring system. Particular questions asked as part of these assessments included: (1) whether the patient suffered abdominal pain within the last ten days, (2) what was the severity of abdominal pain suffered in the last ten days using a 0 (no pain) to 100 (very severe pain) scale, and (3) on how many days within the last ten days did the patient have abdominal pain.

[4] = human, plasma, oral, plasma, Day 1 (N = 5)
[5] = human, plasma, oral, plasma, Day 1 (N = 6)
[6] = 15 mg/day + imiglucerase, Week 4, individual Patients 1-5
[7] = 15 mg/day + imiglucerase, Week 26, individual Patients 1-5

CC(C)(NC(=O)O[C@@H]1CN2CCC1CC2)c1csc(-c2ccc(F)cc2)n1 [Compound 2, (S)-quinuclidin-3-yl 2-(2-(4-fluorophenyl)thiazol-4-yl)propan-2-ylcarbamate]
Crossing of the blood-brain barrier [1]: effectively cross the blood-brain barrier in all patients
Time at which steady state concentration is reached in plasma and CSF [1]: ≤ 4 Week
Concentration in CSF 2-4 hours post dose (mean ± SD) ([1]; Day 1 (N = 6)): <LLOQ
Concentration in CSF 4 hours post dose (mean ± SD) ([1]; Week 4 (N = 5)): 4.17 ± 0.83 ng/mL
Concentration in CSF 4 hours post dose (mean ± SD) ([1]; Week 26 (N = 4)): 4.71 ± 2.50 ng/mL
tmax (median) ([1]; plasma, Day 1 (N = 6)): 2.00 h
Tmax ([1]; human, oral, plasma, Day 1 (N = 5), read-out: tmax (median)): 2 h
AUC(0-t) [1, 4]: 715 ± 225 ng·h/mL
Cmax [1, 4]: 48.2 ± 19.2 ng/mL
AUC(0-t) [1, 5]: 729 ± 205 ng·h/mL
Cmax [1, 5]: 49.1 ± 17.3 ng/mL
GM3 in CSF ([2]; 15 mg/day + imiglucerase, 4, 26 and 52 weeks, the four of six patients measurable at baseline): undetectable
CHITO in CSF, percent change from baseline [2, 6]: −5% and +11% and +9% and −6% (2×)
CHITO in Serum, percent change from baseline [2, 6]: −11% and +8% and −7% and −12% and −1%
GM3 in CSF, percent change from baseline [2, 6]: −51% and −59% (2×) and 0%
GM3 in Plasma, percent change from baseline [2, 6]: −70% and −63% and −65% and −62% and −47%
GPNMB in CSF, percent change from baseline [2, 6]: −63% and +30% and +9% and −6% and −2%
CHITO in CSF, percent change from baseline [2, 7]: −10% and −11% and +20% and −1% and +68%
CHITO in Serum, percent change from baseline [2, 7]: −43% and −55% and −1% and +98% and −11%
GM3 in CSF, percent change from baseline [2, 7]: −51% and 0% (2×) and −59% (2×)
GM3 in Plasma, percent change from baseline [2, 7]: −86% and −69% and −74% and −72% and +10%
GPNMB in CSF, percent change from baseline [2, 7]: −14% and 0% and +45% and +10% and −8%
CSF concentrations of ceramide, CHITO or GPNMB ([2]; 15 mg/day + imiglucerase, after 52 weeks): no significant changes
Number of Patients Reporting Yes to Abdominal Pain in 10-Days Preceding Visit ([3]; 4 weeks): 4/11
Abdominal Pain Severity Score in 10-Days Preceding Visit (mean value, 0-100 scale) ([3]; 4 weeks (n = 4)): 29.75
Number of Days within Preceding 10 Days with Abdominal Pain (mean value) ([3]; 4 weeks (n = 4)): 2.50
Number of Patients Reporting Yes to Abdominal Pain in 10-Days Preceding Visit ([3]; 12 weeks): 2/10
Abdominal Pain Severity Score in 10-Days Preceding Visit (mean value, 0-100 scale) ([3]; 12 weeks (n = 2)): 40.00
Number of Days within Preceding 10 Days with Abdominal Pain (mean value) ([3]; 12 weeks (n = 2)): 3.50
Number of Patients Reporting Yes to Abdominal Pain in 10-Days Preceding Visit ([3]; 26 weeks): 3/9
Abdominal Pain Severity Score in 10-Days Preceding Visit (mean value, 0-100 scale) ([3]; 26 weeks (n = 3)): 31.33
Number of Days within Preceding 10 Days with Abdominal Pain (mean value) ([3]; 26 weeks (n = 3)): 3.00
Number of Patients Reporting Yes to Abdominal Pain in 10-Days Preceding Visit ([3]; 52 weeks): 2/7
Abdominal Pain Severity Score in 10-Days Preceding Visit (mean value, 0-100 scale) ([3]; 52 weeks (n = 1)): 21.00
Number of Days within Preceding 10 Days with Abdominal Pain (mean value) ([3]; 52 weeks (n = 3)): 0.70
Number of Patients Reporting Yes to Abdominal Pain in 10-Days Preceding Visit ([3]; 104 weeks): 2/7
Abdominal Pain Severity Score in 10-Days Preceding Visit (mean value, 0-100 scale) ([3]; 104 weeks (n = 1)): 21.00
Number of Patients Reporting Yes to Abdominal Pain in 10-Days Preceding Visit ([3]; 156 weeks): 2/7
Abdominal Pain Severity Score in 10-Days Preceding Visit (mean value, 0-100 scale) ([3]; 156 weeks (n = 2)): 15.00
Number of Days within Preceding 10 Days with Abdominal Pain (mean value) ([3]; 156 weeks (n = 2)): 0.20
Patients with decreased severity of abdominal pain, among those with gastrointestinal pain at baseline ([3]; week 26): four out of five
Patients with improved overall bodily pain scores (SF-36) ([3]; week 26): Seven of nine
Patients with reduced number of days with gastrointestinal pain ([3]; week 26): five of five
Patients with decreased severity of abdominal pain, among those with gastrointestinal pain at baseline ([3]; week 156): four out of four
Patients with improved overall bodily pain scores (SF-36) ([3]; week 156): three of six
Patients with reduced number of days with gastrointestinal pain ([3]; week 156): three of four
